Consider twelve molecules from ChEMBL document CHEMBL1201862, “PubChem BioAssay data set” (2004).

Some test systems named below: Malme-3M; HOP-92; RPMI-8226; SF-295; SNB-19; SK-OV-3; LXFL 529; IGROV-1; HCC 2998; NCI-H460; HCT-116; UO-31; UACC-62; SN12C; NCI-H226; SW-620; T47D; Hs-578T; MDA-N; MDA-MB-231.
Common to all, as to experiment: DTP human tumour cell line panel, 48 h

Broadly, the GI50 is the concentration that inhibits growth by half.

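Following 48 hours of exposure in 96-well plates, responses at five concentrations were used to interpolate endpoints linearly. Abbreviation: GI50, concentration required for 50% inhibition of growth.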 The source made the active and inactive calls. Cut-off read from the data, not from the text of the source: active = GI50 up to about 1.1 µM and inactive = higher.

For the molecule `COc1ccc2c(c1)C(=O)C1CC(=O)CCC21` (centres undefined), the GI50 with Malme-3M, with HOP-92, in the assay with RPMI-8226, in the assay on SF-295, in the assay on SNB-19 and with SK-OV-3 was > 100 µM (inactive) throughout. Further, the GI50 in the assay on LXFL 529, in the assay on IGROV-1, with HCC 2998, in the assay with NCI-H460, with HCT-116 and in the assay on UO-31 was > 100 µM (inactive) throughout. Also, the GI50 in the assay with UACC-62, in the assay with SN12C, in the assay with NCI-H226 and in the assay with SW-620 was > 100 µM (inactive) in each case.
For `CCNC(=O)COc1ccc(Cl)c(C)c1`, the GI50 in the assay with Malme-3M, in the assay with HOP-92, with RPMI-8226, in the assay with SF-295, with SNB-19 and with SK-OV-3 was > 100 µM (inactive) each time. Also, the GI50 in the assay with LXFL 529, in the assay with IGROV-1, with HCC 2998, with NCI-H460, in the assay with HCT-116 and in the assay on UO-31 was > 100 µM (inactive) throughout. Moreover, the GI50 with UACC-62, with SN12C, with NCI-H226 and in the assay on SW-620 was > 100 µM (inactive) each time.
`CCCCCCCCOCC(O)COC` (centres undefined): the GI50 in the assay with Malme-3M is > 100 µM (inactive); in the assay with HOP-92 it was 82.6 µM (inactive); with RPMI-8226, > 100 µM (inactive); with SF-295, > 100 µM (inactive); with SNB-19, > 100 µM (inactive); in the assay with SK-OV-3, > 100 µM (inactive). Moreover, the GI50 in the assay with LXFL 529, in the assay with IGROV-1, with HCC 2998, in the assay with NCI-H460, in the assay on HCT-116 and in the assay on UO-31 was > 100 µM (inactive) each time. Further, the GI50 with UACC-62, in the assay on SN12C, in the assay on NCI-H226 and in the assay with SW-620 was > 100 µM (inactive) throughout.
As for `Cn1ncc2ccc3[nH]c4ccccc4c(=O)c3c21`, the GI50 is 30.1 µM (inactive) with Malme-3M; 37.8 µM (inactive) in the assay with HOP-92; 22.5 µM (inactive) in the assay on RPMI-8226; 34.8 µM (inactive) in the assay with SF-295; 38.3 µM (inactive) in the assay with SNB-19; 50.7 µM (inactive) in the assay with SK-OV-3. Also, the GI50 was 30 µM (inactive) in the assay on LXFL 529; 39.9 µM (inactive) in the assay with IGROV-1; 31.4 µM (inactive) with HCC 2998; 28.7 µM (inactive) in the assay on NCI-H460; 24.9 µM (inactive) in the assay with HCT-116; 15 µM (inactive) with UO-31. The GI50 with UACC-62 is 16.9 µM (inactive); in the assay on SN12C, 28.2 µM (inactive); in the assay on NCI-H226, 11.6 µM (inactive); in the assay on SW-620, 26.2 µM (inactive).
Regarding `O=C(/C(=C/c1ccc(Cl)cc1)c1ccccc1)c1ccccc1`, the GI50 in the assay with Malme-3M is 17 µM (inactive); in the assay with HOP-92 it was 13.9 µM (inactive); with RPMI-8226, 18.5 µM (inactive); in the assay on SF-295 it was 18.8 µM (inactive); in the assay on SK-OV-3 it was 23.9 µM (inactive); in the assay with LXFL 529 it was 15.9 µM (inactive). Besides, the GI50 in the assay on IGROV-1 is 18.7 µM (inactive); in the assay on HCC 2998 it was 16.9 µM (inactive); with NCI-H460, 17.7 µM (inactive); in the assay with HCT-116, 13.6 µM (inactive); in the assay on UO-31, 27 µM (inactive); in the assay with UACC-62, 15.6 µM (inactive). The results for the GI50 with SN12C, in the assay with NCI-H226 and in the assay on SW-620 were 16.7 µM (inactive), 17.1 µM (inactive) and 17.4 µM (inactive), respectively.
For the molecule `CC1(c2cccc(N)c2)C2C(=O)NC(=O)C1C(=O)NC2=O` (centres undefined), the GI50 was 31.1 µM (inactive) in the assay with Malme-3M; 22.9 µM (inactive) with HOP-92; 16 µM (inactive) in the assay with RPMI-8226; 22.4 µM (inactive) in the assay on SF-295; 29.2 µM (inactive) with SNB-19; 23.9 µM (inactive) in the assay on SK-OV-3. In addition, the GI50 with LXFL 529 was 32.2 µM (inactive); in the assay on IGROV-1, 44.3 µM (inactive); with HCC 2998 it was 52.2 µM (inactive); in the assay with NCI-H460, 33 µM (inactive); with UO-31 it was 22.3 µM (inactive); in the assay with UACC-62 it was 33.3 µM (inactive). Also, the GI50 in the assay with SN12C was 29 µM (inactive); in the assay on NCI-H226, 28.1 µM (inactive); with SW-620, 34 µM (inactive).
For `Cc1c(Cl)cccc1N1C(=O)C(Cl)=C(Cl)C1=O`, the GI50 in the assay with Malme-3M was > 100 µM (inactive); in the assay on HOP-92, > 73.8 µM (inactive); in the assay on RPMI-8226, 43 µM (inactive); in the assay with SF-295, > 100 µM (inactive); with SNB-19, > 100 µM (inactive); in the assay with SK-OV-3 it was > 100 µM (inactive). The GI50 in the assay with LXFL 529 was > 75.7 µM (inactive); in the assay with IGROV-1, > 100 µM (inactive); in the assay on HCC 2998, > 100 µM (inactive); in the assay on NCI-H460, > 100 µM (inactive); in the assay on HCT-116, > 100 µM (inactive); with UO-31, > 100 µM (inactive). In addition, the GI50 in the assay with UACC-62 was > 100 µM (inactive); in the assay with SN12C, > 100 µM (inactive); in the assay on NCI-H226 it was > 100 µM (inactive); with SW-620, > 58.2 µM (inactive).
Turning to `COc1ccc(/C(C)=N/NC(N)=S)c(OC)c1`, the GI50 in the assay on Malme-3M, in the assay with HOP-92, with RPMI-8226, with SF-295, in the assay with SNB-19 and in the assay on SK-OV-3 was > 100 µM (inactive) in each case. Also, the GI50 in the assay on LXFL 529, with IGROV-1, with HCC 2998, with NCI-H460, in the assay on HCT-116 and in the assay with UO-31 was > 100 µM (inactive) in each case. Also, the GI50 with UACC-62 is > 100 µM (inactive); in the assay with SN12C, > 100 µM (inactive); in the assay on NCI-H226, > 100 µM (inactive); with SW-620 it was 43.3 µM (inactive).
With `CCOC(=O)c1cn(Cc2ccccc2)c(=O)n1Cc1ccccc1`, the GI50 was > 100 µM (inactive) in the assay on Malme-3M; > 100 µM (inactive) in the assay with HOP-92; 40.2 µM (inactive) in the assay on RPMI-8226; 67.1 µM (inactive) with SF-295; > 100 µM (inactive) in the assay on SNB-19; > 100 µM (inactive) in the assay on SK-OV-3. Also, the GI50 with LXFL 529 is > 100 µM (inactive); with IGROV-1 it was > 100 µM (inactive); in the assay with HCC 2998 it was > 100 µM (inactive); in the assay with NCI-H460, > 100 µM (inactive); in the assay on HCT-116 it was > 100 µM (inactive); with UO-31, 48.9 µM (inactive). The GI50 in the assay on UACC-62, in the assay on SN12C, in the assay on NCI-H226 and in the assay with SW-620 was > 100 µM (inactive) in each case.
In the case of `CC(C)(O)[C@@H]1CC[C@@]2(C)CCCC(O)C2(O)C1` (some centres undefined), the GI50 in the assay with Malme-3M, with HOP-92, in the assay on RPMI-8226, with SF-295, in the assay on SNB-19 and in the assay with SK-OV-3 was > 100 µM (inactive) in each case. Moreover, the GI50 in the assay with LXFL 529, in the assay with IGROV-1, in the assay with HCC 2998, with NCI-H460, with HCT-116 and with UO-31 was > 100 µM (inactive) in each case. The GI50 in the assay on UACC-62, with SN12C, in the assay on NCI-H226 and with SW-620 was > 100 µM (inactive) in each case.
Consider `C[C@@H]1C[C@@H]([C@H](O)CC2CC(=O)NC(=O)C2)C(=O)[C@@H](C)C1` [CYCLOHEXIMIDE], for which the GI50 in the assay with Malme-3M was 0.0889 µM (active); in the assay on HOP-92, 0.0366 µM (active); in the assay with RPMI-8226, 0.0362 µM (active); in the assay with SF-295 it was 0.142 µM (active); in the assay with SNB-19 it was 0.0984 µM (active); with SK-OV-3, 0.127 µM (active). The GI50 in the assay with LXFL 529 is 0.0187 µM (active); in the assay on IGROV-1 it was 0.0532 µM (active); in the assay with HCC 2998, 0.0378 µM (active); with NCI-H460, 0.122 µM (active); with HCT-116 it was 0.0738 µM (active); in the assay on UO-31, 0.0287 µM (active). The GI50 in the assay on UACC-62 was 0.118 µM (active); with SN12C, 0.0199 µM (active); in the assay on NCI-H226, 0.219 µM (active); with SW-620 it was 0.0462 µM (active).
For `Nc1ccc(S(=O)(=O)Nc2cnc3ccccc3n2)cc1` [SULFAQUINOXALINE], the GI50 in the assay on Malme-3M was > 96.6 µM (inactive); with HOP-92, > 100 µM (inactive); in the assay on RPMI-8226 it was > 100 µM (inactive); in the assay with T47D, > 100 µM (inactive); in the assay with Hs-578T it was < 0.01 µM (active); in the assay on SF-295, > 100 µM (inactive). The GI50 was > 100 µM (inactive) in the assay on SNB-19; > 100 µM (inactive) in the assay on SK-OV-3; > 100 µM (inactive) with LXFL 529; > 96.6 µM (inactive) with IGROV-1; > 100 µM (inactive) with HCC 2998; > 100 µM (inactive) with NCI-H460. For the same molecule, the GI50 in the assay on HCT-116, in the assay with UO-31, in the assay with MDA-N, with UACC-62, in the assay on SN12C and with NCI-H226 was > 100 µM (inactive) in each case. For the same molecule, the GI50 with MDA-MB-231 and in the assay on SW-620 was > 100 µM (inactive) in each case.
